AC50 data for 89 compounds are collected here from patent US9938259B2, “Therapeutic compositions and related methods of use” (Agios Pharmaceuticals, Inc., priority 2009, dated 2018).

This experiment deals with PKM2 (Homo sapiens, UniProt P14618). The experiment is described as follows: PKM2 Assay. In kind it is biochemical. The conditions noted are these: activation of PKM2 enzyme, LDH-coupled, absorbance at 340 nm; read-out: PKM2_AC50. The procedure: • PKM2 stock enzyme solution was diluted in Reaction Buffer • 2 μL of compound was added into each well first, and then 180 μL of the Reaction Mix was added. • Reaction mixture with compound (without ADP) were incubated for 30 minutes at 4° C. • Plates were re-equilibrated to room temperature prior to adding 20 μL ADP to initiate the reaction. • Reaction progress was measured as changes in absorbance at 340 nm wavelength at room temperature (25° C.) • Reaction Mix: PKM2 (50 ng/well), ADP (0.7 mM), PEP (0.15 mM), NADH (180 μM), LDH (2 units) in Reaction Buffer • Reaction Buffer: 100 mM KCl, 50 mM Tris pH 7.5, 5 mM MgCl2, 1 mM DTT, 0.03% BSA.
PKM2, sequence (P14618 whole entry): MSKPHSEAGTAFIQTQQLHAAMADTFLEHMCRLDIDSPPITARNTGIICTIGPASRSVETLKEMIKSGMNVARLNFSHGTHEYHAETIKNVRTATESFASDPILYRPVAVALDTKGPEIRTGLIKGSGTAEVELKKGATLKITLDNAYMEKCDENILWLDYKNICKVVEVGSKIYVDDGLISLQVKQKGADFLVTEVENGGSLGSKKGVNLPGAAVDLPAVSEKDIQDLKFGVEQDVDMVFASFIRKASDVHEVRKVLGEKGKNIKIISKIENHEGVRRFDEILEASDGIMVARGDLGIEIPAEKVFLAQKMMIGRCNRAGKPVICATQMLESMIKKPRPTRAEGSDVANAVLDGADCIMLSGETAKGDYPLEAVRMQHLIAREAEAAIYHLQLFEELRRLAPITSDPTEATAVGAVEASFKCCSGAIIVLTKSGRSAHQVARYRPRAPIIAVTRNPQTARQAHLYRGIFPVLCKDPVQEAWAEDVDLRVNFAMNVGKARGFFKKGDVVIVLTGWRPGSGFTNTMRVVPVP

As for `O=S(=O)(Nc1ccc(Oc2ccc(C(F)(F)F)cn2)c(Cl)c1)c1cccn1-c1ncc(C(F)(F)F)cc1Cl`, the AC50 lay within 1000 to 10000 nM.
On to `O=S(=O)(Nc1cccc(-c2ccc(C(F)(F)F)cn2)c1)c1cccn1-c1ncc(C(F)(F)F)cc1Cl`, for which the AC50 lay in the range of 1000 to 10000 nM.
Take `O=S(=O)(NCc1cccnc1)c1cccn1-c1ncc(C(F)(F)F)cc1Cl`: the AC50 fell in the range of 1000 to 10000 nM.
With `O=S(=O)(Nc1ccc(Cl)cc1)c1cccn1-c1ccnc(Cl)n1`, the AC50 lay within 500 to 1000 nM.
Regarding `N#Cc1cccc(NS(=O)(=O)c2cccn2-c2ncc(C(F)(F)F)cc2Cl)c1`, the AC50 is 100 to 500 nM.
`CCCNS(=O)(=O)c1cccn1-c1ncc(C(F)(F)F)cc1Cl`: the AC50 fell in the range of 1000 to 10000 nM.
Consider `O=S(=O)(Nc1cc(Cl)cc(Cl)c1)c1cccn1-c1ncc(C(F)(F)F)cc1Cl`, for which the AC50 fell in the range of 1000 to 10000 nM.
Then `COc1cc(NS(=O)(=O)c2cccn2-c2ncc(C(F)(F)F)cc2Cl)cc(C(F)(F)F)c1`, with 500 to 1000 nM; and `CN(C)S(=O)(=O)c1cccn1-c1ncc(C(F)(F)F)cc1Cl`, with over 10000 nM.
On to `O=S(=O)(Nc1ccccc1C(F)(F)F)c1cccn1-c1ncc(C(F)(F)F)cc1Cl`, for which the AC50 is 1000 to 10000 nM.
Consider `CCc1cccc(NS(=O)(=O)c2cccn2-c2ncc(C(F)(F)F)cc2Cl)c1`, for which the AC50 was 500 to 1000 nM.
For `COC(=O)c1cccc(NS(=O)(=O)c2cccn2-c2ncc(C(F)(F)F)cc2Cl)c1`, the AC50 lay within 1000 to 10000 nM.
For the compound `COc1cc(NS(=O)(=O)c2cccn2-c2ncc(C(F)(F)F)cc2Cl)cc(OC)c1`, the AC50 fell in the range of 100 to 500 nM.
As to `O=S(=O)(Nc1ccc(F)cc1)c1cccn1-c1ccc(C(F)(F)F)cn1`, the AC50 lay in the range of 1000 to 10000 nM.
As to `COCCNS(=O)(=O)c1cccn1-c1ncc(C(F)(F)F)cc1Cl`, the AC50 is over 10000 nM.
Then `O=S(=O)(NCc1ccc(Cl)cc1)c1cccn1-c1ncc(C(F)(F)F)cc1Cl`, with over 10000 nM; and `O=S(=O)(Nc1ccc(Cl)cc1)c1cccn1-c1nccc(Cl)n1`, with 500 to 1000 nM.
For the compound `O=S(=O)(Oc1ccc(Cl)cc1)c1cccn1-c1ncc(C(F)(F)F)cc1Cl`, the AC50 was 500 to 1000 nM.
Then `O=S(=O)(Nc1cccc(C(F)(F)F)c1)c1cccn1-c1ncc(C(F)(F)F)cc1Cl`, with 100 to 500 nM; and `O=S(=O)(Nc1ccc(Cl)cc1)c1cccn1-c1ncccn1`, with 1000 to 10000 nM; and `COc1ccc(NS(=O)(=O)c2cccn2-c2ncc(C(F)(F)F)cc2Cl)cc1`, with 100 to 500 nM.
Take `N#Cc1cccc(NS(=O)(=O)c2cncn2-c2ncc(C(F)(F)F)cc2Cl)c1`: the AC50 fell in the range of 1000 to 10000 nM.
Turning to `O=S(=O)(Nc1ccc(F)cc1)c1cncn1-c1ncc(C(F)(F)F)cc1Cl`, the AC50 is 1000 to 10000 nM.
For `O=S(=O)(Nc1cccc(C(F)(F)F)c1)c1cncn1-c1ncc(C(F)(F)F)cc1Cl`, the AC50 lay in the range of 1000 to 10000 nM.
For the compound `O=S(=O)(Nc1cc(F)cc(F)c1)c1cncn1-c1ncc(C(F)(F)F)cc1Cl`, the AC50 fell in the range of 500 to 1000 nM.
As to `O=S(=O)(Nc1ccc2ncccc2c1)c1cncn1-c1ncc(C(F)(F)F)cc1Cl`, the AC50 fell in the range of 1000 to 10000 nM.
For the compound `COc1ccc(NS(=O)(=O)c2cncn2-c2ncc(C(F)(F)F)cc2Cl)cc1`, the AC50 is 1000 to 10000 nM.
As to `Cc1cc(NS(=O)(=O)c2cncn2-c2cnccn2)ccc1F`, the AC50 was in the range of 100 to 500 nM.
Regarding `O=S(=O)(Nc1cccc2ccccc12)c1cncn1-c1ncc(C(F)(F)F)cc1Cl`, the AC50 was in the range of 100 to 500 nM.
With `O=S(=O)(Nc1ccc2c(c1)OCCO2)c1cncn1-c1ncc(C(F)(F)F)cc1Cl`, the AC50 was in the range of 1000 to 10000 nM.
Then `O=S(=O)(Nc1cc(F)c(F)c(F)c1)c1cncn1-c1ncc(C(F)(F)F)cc1Cl`, with 1000 to 10000 nM; and `O=S(=O)(Nc1cc(F)cc(F)c1)c1cncn1-c1ncccn1`, with 1000 to 10000 nM; and `O=S(=O)(Nc1cc(C(F)(F)F)cc(C(F)(F)F)c1)c1cncn1-c1ncc(C(F)(F)F)cc1Cl`, with over 10000 nM.
To `O=S(=O)(Nc1cc(Cl)cc(Cl)c1)c1cncn1-c1ncc(C(F)(F)F)cc1Cl` belongs 1000 to 10000 nM.
Then `O=S(=O)(Nc1ccc2c(c1)OCCO2)c1cncn1-c1ccc(C(F)(F)F)cn1`, with over 10000 nM; and `O=S(=O)(Nc1cccc2ncccc12)c1cncn1-c1ncc(C(F)(F)F)cc1Cl`, with 1000 to 10000 nM; and `COc1ccc(NS(=O)(=O)c2cncn2-c2ccc(C(F)(F)F)cn2)cc1`, with 1000 to 10000 nM.
For `O=S(=O)(Nc1ccc(Cl)cc1)c1cncn1-c1ncccn1`, the AC50 was in the range of 1000 to 10000 nM.
In the case of `O=S(=O)(Nc1ccc(F)c(Cl)c1)c1cncn1-c1cnccn1`, the AC50 was in the range of 100 to 500 nM.
To `O=S(=O)(Nc1ccc(F)cc1)c1cncn1-c1ccc(C(F)(F)F)cn1` belongs 1000 to 10000 nM; to `COc1cc(NS(=O)(=O)c2cncn2-c2ncc(C(F)(F)F)cc2Cl)cc(OC)c1`, 500 to 1000 nM; to `Cc1cc(C)cc(NS(=O)(=O)c2cncn2-c2ccc(C(F)(F)F)cn2)c1`, 100 to 500 nM.
For the compound `CCc1cccc(NS(=O)(=O)c2cncn2-c2ncc(C(F)(F)F)cc2Cl)c1`, the AC50 is 100 to 500 nM.
As to `COc1ccc(NS(=O)(=O)c2cnn(-c3ncc(C(F)(F)F)cc3Cl)c2)cc1`, the AC50 was in the range of 1000 to 10000 nM.
As for `O=S(=O)(Nc1ccc(Cl)cc1)c1cnn(-c2ncc(C(F)(F)F)cc2Cl)c1`, the AC50 fell in the range of 100 to 500 nM.
Regarding `Cc1cc(C)cc(S(=O)(=O)Nc2ccnn2-c2ncc(C(F)(F)F)cc2Cl)c1`, the AC50 is over 10000 nM.
Turning to `O=S(=O)(Nc1ccc(Cl)cc1)c1cnn(-c2ccc(C(F)(F)F)cn2)c1`, the AC50 lay in the range of 1000 to 10000 nM.
Regarding `COc1ccc(NS(=O)(=O)c2cnn(-c3ccc(C(F)(F)F)cn3)c2)cc1`, the AC50 was over 10000 nM.
Then `O=S(=O)(Nc1cc(F)c(F)c(F)c1)c1cccn1-c1ncc(C(F)(F)F)cc1Cl`, with 100 to 500 nM.
Turning to `O=S(=O)(Nc1ccc(F)c(Cl)c1)c1cccn1-c1ncccc1Cl`, the AC50 is 100 to 500 nM.
Then `O=S(=O)(Nc1ccc(F)cc1)c1cccn1-c1ncccc1Cl`, with 1000 to 10000 nM.
Take `O=S(=O)(Nc1ccc(F)cc1)c1cncn1-c1ncccn1`: the AC50 was in the range of 1000 to 10000 nM.
Take `O=S(=O)(Nc1ccc2c(c1)OCO2)c1cncn1-c1ncccn1`: the AC50 lay in the range of 500 to 1000 nM.
Then `O=S(=O)(Nc1ccc(Cl)cc1)c1cncn1-c1ccnc(Cl)n1`, with 1000 to 10000 nM; and `COc1cc(NS(=O)(=O)c2cccn2-c2ccnc(Cl)n2)cc(C(F)(F)F)c1`, with 500 to 1000 nM; and `O=S(=O)(Nc1cc(F)c(F)c(F)c1)c1cccn1-c1ccnc(Cl)n1`, with 1000 to 10000 nM.
Turning to `O=S(=O)(Nc1ccc(F)c(Cl)c1)c1cccn1-c1nccc(Cl)n1`, the AC50 lay within 100 to 500 nM.
On to `O=S(=O)(Nc1ccc2c(c1)OCO2)c1cccn1-c1nccc(Cl)n1`, for which the AC50 lay in the range of 100 to 500 nM.
As for `O=S(=O)(Nc1ccc2c(c1)OCO2)c1cncn1-c1cnccn1`, the AC50 was 100 to 500 nM.
For the compound `O=S(=O)(Nc1cc(F)cc(F)c1)c1cccn1-c1ccnc(Cl)n1`, the AC50 is 500 to 1000 nM.
For the compound `O=S(=O)(Nc1cccc(C(F)(F)F)c1)c1cccn1-c1ccnc(Cl)n1`, the AC50 lay in the range of 500 to 1000 nM.
Regarding `O=S(=O)(Nc1ccc2c(c1)OCO2)c1cccn1-c1ccnc(Cl)n1`, the AC50 is under 100 nM.
Then `Cc1cc(NS(=O)(=O)c2cccn2-c2ccnc(Cl)n2)ccc1F`, with under 100 nM; and `O=S(=O)(Nc1cc(F)cc(F)c1)c1cncn1-c1nccc(Cl)n1`, with 1000 to 10000 nM.
With `O=S(=O)(Nc1cc(F)cc(F)c1)c1cncn1-c1ccnc(Cl)n1`, the AC50 is over 10000 nM.
Take `O=S(=O)(Nc1ccc(F)cc1)c1cncn1-c1nccc(Cl)n1`: the AC50 lay in the range of 1000 to 10000 nM.
On to `O=S(=O)(Nc1ccc(F)cc1)c1cncn1-c1ccnc(Cl)n1`, for which the AC50 lay within 1000 to 10000 nM.
As for `O=S(=O)(Nc1ccc(Cl)cc1)c1cncn1-c1nccc(Cl)n1`, the AC50 was 1000 to 10000 nM.
`O=S(=O)(Nc1ccc(F)c(Cl)c1)c1cncn1-c1ccnc(Cl)n1`: the AC50 lay within 100 to 500 nM.
As for `O=S(=O)(Nc1ccc2c(c1)OCO2)c1cncn1-c1ccnc(Cl)n1`, the AC50 was 500 to 1000 nM.
Then `Cc1cccc(NS(=O)(=O)c2cncn2-c2cnccn2)c1`, with 100 to 500 nM.
With `Cc1cc(C)cc(NS(=O)(=O)c2cncn2-c2cnccn2)c1`, the AC50 is under 100 nM.
On to `O=S(=O)(Nc1ccc(F)c(Cl)c1)c1cncn1-c1nccc(Cl)n1`, for which the AC50 fell in the range of 1000 to 10000 nM.
In the case of `Cc1cc(NS(=O)(=O)c2ccnn2-c2cnccn2)ccc1F`, the AC50 lay in the range of 100 to 500 nM.
Turning to `O=S(=O)(Nc1cccc(Cl)c1)c1ccnn1-c1ncc(C(F)(F)F)cc1Cl`, the AC50 fell in the range of 100 to 500 nM.
On to `Cc1cc(NS(=O)(=O)c2ccnn2-c2ncc(C(F)(F)F)cc2Cl)ccc1F`, for which the AC50 was under 100 nM.
Regarding `O=S(=O)(Nc1cccc(Cl)c1)c1ccnn1-c1nccs1`, the AC50 is 1000 to 10000 nM.
With `Cc1cc(NS(=O)(=O)c2ccnn2-c2nccs2)ccc1F`, the AC50 is 1000 to 10000 nM.
As to `O=S(=O)(Nc1ccc(F)c(Cl)c1)c1ccnn1-c1nccs1`, the AC50 fell in the range of 1000 to 10000 nM.
Turning to `O=S(=O)(Nc1cccc(Cl)c1)c1ccnn1-c1cccs1`, the AC50 was over 10000 nM.
On to `Cc1cc(NS(=O)(=O)c2ccnn2-c2cccs2)ccc1F`, for which the AC50 lay within 1000 to 10000 nM.
With `O=S(=O)(Nc1ccc(F)c(Cl)c1)c1ccnn1-c1cccs1`, the AC50 is over 10000 nM.
In the case of `O=S(=O)(Nc1ccc(F)c(Cl)c1)c1cncn1-c1nccs1`, the AC50 fell in the range of 500 to 1000 nM.
For `O=S(=O)(Nc1cccc(Cl)c1)c1cncn1-c1cccs1`, the AC50 fell in the range of 1000 to 10000 nM.
Turning to `Cc1cc(NS(=O)(=O)c2cncn2-c2cccs2)ccc1F`, the AC50 was in the range of 1000 to 10000 nM.
To `O=S(=O)(Nc1ccc(F)c(Cl)c1)c1cncn1-c1cccs1` belongs 1000 to 10000 nM.
As to `O=S(=O)(Nc1cccc(Cl)c1)c1cncn1-c1nccs1`, the AC50 lay within 500 to 1000 nM.
For the compound `Cc1cc(NS(=O)(=O)c2cncn2-c2nccs2)ccc1F`, the AC50 lay within 100 to 500 nM.
With `O=S(=O)(Nc1cc(F)cc(F)c1)c1cccn1-c1ncccc1Cl` [drawing 63], the AC50 lay in the range of 500 to 1000 nM.
